# Key:
# Type in all cases: functional
# Candida albicans [1] = assay: Minimum inhibitory concentration against Candida albicans (ATCC 62376) in the presence of serum
# Candida albicans [2] = assay: Minimum inhibitory concentration against Candida albicans (ATCC 10231) in the presence of serum
# Candida albicans [3] = assay: Minimum inhibitory concentration against Candida albicans (ATCC 38247) in the presence of serum
# Candida albicans [4] = assay: Minimum inhibitory concentration against Candida albicans (ATCC 62376) in the absence of serum.
# Candida albicans [5] = assay: Minimum inhibitory concentration against Candida albicans (579a) in the presence of serum
# Candida albicans [6] = assay: Minimum inhibitory concentration against Candida albicans (CCH 442) in the absence of serum.
# Candida albicans [7] = assay: Minimum inhibitory concentration against Candida albicans (579a) in the absence of serum.
# Candida albicans [8] = assay: Minimum inhibitory concentration against Candida albicans (ATCC 38247) in the absence of serum.
# Candida albicans [9] = assay: Minimum inhibitory concentration against Candida albicans (ATCC 10231) in the absence of serum.
# Candida albicans [10] = assay: Minimum inhibitory concentration against Candida albicans (CCH 442) in the presence of serum
SMILES,MIC (Candida albicans [1]) [µg/mL],MIC (Candida albicans [2]) [µg/mL],MIC (Candida albicans [3]) [µg/mL],MIC (Candida albicans [4]) [µg/mL],MIC (Candida albicans [5]) [µg/mL],MIC (Candida albicans [6]) [µg/mL],MIC (Candida albicans [7]) [µg/mL],MIC (Candida albicans [8]) [µg/mL],MIC (Candida albicans [9]) [µg/mL],MIC (Candida albicans [10]) [µg/mL]
CCCCC/C=C/C=C/[C@@H](O)C/C=C/C=C/C(=O)O[C@@H]1[C@@H](O)[C@H](c2c(O)cc(O)cc2CO)O[C@H](CO)[C@H]1O[C@@H]1O[C@H](COC(=O)c2ccccc2)[C@H](O)[C@H](O)[C@H]1O[C@@H]1O[C@H](CO)[C@H](O)[C@H](O)[C@H]1O,12.5,12.5,6.25,> 100,6.25,> 100,> 100,> 100,> 100,12.5
CCCCC/C=C/C=C/[C@@H](O)C/C=C/C=C/C(=O)O[C@@H]1[C@@H](O)[C@H](c2c(O)cc(O)cc2CO)O[C@H](CO)[C@H]1O[C@@H]1O[C@H](COC(=O)c2cccc(-c3ccc(OC)cc3)c2)[C@H](O)[C@H](O)[C@H]1O[C@@H]1O[C@H](CO)[C@H](O)[C@H](O)[C@H]1O,3.12,1.56,1.56,25,0.78,100,50,100,50,1.56
CCCCC/C=C/C=C/[C@@H](O)C/C=C/C=C/C(=O)O[C@@H]1[C@@H](O)[C@H](c2c(O)cc(O)cc2CO)O[C@H](CO)[C@H]1O[C@@H]1O[C@H](COC(=O)c2ccc(CCCC)cc2)[C@H](O)[C@H](O)[C@H]1O[C@@H]1O[C@H](CO)[C@H](O)[C@H](O)[C@H]1O,1.56,3.12,1.56,> 100,0.78,> 100,> 100,> 100,> 100,3.12
CCCCC/C=C/C=C/[C@@H](O)C/C=C/C=C/C(=O)O[C@@H]1[C@@H](O)[C@H](c2c(O)cc(O)cc2CO)O[C@H](CO)[C@H]1O[C@@H]1O[C@H](COC(C)=O)[C@H](O)[C@H](O)[C@H]1O[C@@H]1O[C@H](CO)[C@H](O)[C@H](O)[C@H]1O,> 100,> 100,> 100,> 100,> 100,> 100,> 100,> 100,> 100,> 100
CCC(O)/C=C/C=C\C=C\C(=O)OC[C@H]1O[C@@H](O[C@H]2[C@H](OC(=O)/C=C/C=C/C[C@H](O)/C(C)=C/C=C/CCC(C)CC)[C@@H](O)[C@@]3(OCc4cc(O)cc(O)c43)O[C@@H]2CO)[C@H](O)[C@@H](O)[C@H]1O (stereo not given in full),0.39,0.2,0.39,> 100,0.78,> 100,> 100,> 100,> 100,0.78
CCCCC/C=C/C=C/[C@@H](O)C/C=C/C=C/C(=O)O[C@@H]1[C@@H](O)[C@H](c2c(O)cc(O)cc2CO)O[C@H](CO)[C@H]1O[C@@H]1O[C@H](COC(=O)c2cc3ccccc3c3ccccc23)[C@H](O)[C@H](O)[C@H]1O[C@@H]1O[C@H](CO)[C@H](O)[C@H](O)[C@H]1O,3.12,3.12,6.25,100,3.12,100,50,100,50,3.12
CCCCC/C=C/C=C/[C@@H](O)C/C=C/C=C/C(=O)O[C@@H]1[C@@H](O)[C@H](c2c(O)cc(O)cc2CO)O[C@H](CO)[C@H]1O[C@@H]1O[C@H](COC(=O)c2cccc3ccccc23)[C@H](O)[C@H](O)[C@H]1O[C@@H]1O[C@H](CO)[C@H](O)[C@H](O)[C@H]1O,6.25,3.12,1.56,100,3.12,50,50,50,50,3.12
CCCCC/C=C/C=C/[C@@H](O)C/C=C/C=C/C(=O)O[C@@H]1[C@@H](O)[C@H](c2c(O)cc(O)cc2CO)O[C@H](CO)[C@H]1O[C@@H]1O[C@H](COC(=O)c2ccc3c(c2)-c2ccccc2-3)[C@H](O)[C@H](O)[C@H]1O[C@@H]1O[C@H](CO)[C@H](O)[C@H](O)[C@H]1O,1.56,1.56,0.78,25,0.39,25,25,25,25,0.39
CCCCC/C=C/C=C/[C@@H](O)C/C=C/C=C/C(=O)O[C@@H]1[C@@H](O)[C@H](c2c(O)cc(O)cc2CO)O[C@H](CO)[C@H]1O[C@@H]1O[C@H](COC(=O)c2ccc(-c3ccc(OCCCCCCCC)cc3)cc2)[C@H](O)[C@H](O)[C@H]1O[C@@H]1O[C@H](CO)[C@H](O)[C@H](O)[C@H]1O,12.5,25,50,100,25,100,100,> 100,100,25
CCCCC/C=C/C=C/[C@@H](O)C/C=C/C=C/C(=O)O[C@@H]1[C@@H](O)[C@H](c2c(O)cc(O)cc2CO)O[C@H](CO)[C@H]1O[C@@H]1O[C@H](COC(=O)CCCCCCCCC)[C@H](O)[C@H](O)[C@H]1O[C@@H]1O[C@H](CO)[C@H](O)[C@H](O)[C@H]1O,12.5,12.5,12.5,> 100,12.5,> 100,> 100,> 100,> 100,6.25

# Other lines, results leading:
MIC (Candida albicans [1]) [µg/mL],MIC (Candida albicans [2]) [µg/mL],MIC (Candida albicans [3]) [µg/mL],MIC (Candida albicans [4]) [µg/mL],MIC (Candida albicans [5]) [µg/mL],MIC (Candida albicans [6]) [µg/mL],MIC (Candida albicans [7]) [µg/mL],MIC (Candida albicans [8]) [µg/mL],MIC (Candida albicans [9]) [µg/mL],MIC (Candida albicans [10]) [µg/mL],SMILES
0.78,0.78,3.12,12.5,1.56,6.25,12.5,25,12.5,0.78,CCCCC/C=C/C=C/[C@@H](O)C/C=C/C=C/C(=O)O[C@@H]1[C@@H](O)[C@H](c2c(O)cc(O)cc2CO)O[C@H](CO)[C@H]1O[C@@H]1O[C@H](COC(=O)c2ccc(-c3ccc(OC)cc3)cc2)[C@H](O)[C@H](O)[C@H]1O[C@@H]1O[C@H](CO)[C@H](O)[C@H](O)[C@H]1O
0.78,0.78,0.78,12.5,0.78,6.25,25,25,12.5,0.78,CCCCC/C=C/C=C/[C@@H](O)C/C=C/C=C/C(=O)O[C@@H]1[C@@H](O)[C@H](c2c(O)cc(O)cc2CO)O[C@H](CO)[C@H]1O[C@@H]1O[C@H](COC(=O)c2ccc(-c3ccc(OCCC)cc3)cc2)[C@H](O)[C@H](O)[C@H]1O[C@@H]1O[C@H](CO)[C@H](O)[C@H](O)[C@H]1O
0.78,0.78,1.56,12.5,0.78,12.5,12.5,25,12.5,0.78,CCCCC/C=C/C=C/[C@@H](O)C/C=C/C=C/C(=O)O[C@@H]1[C@@H](O)[C@H](c2c(O)cc(O)cc2CO)O[C@H](CO)[C@H]1O[C@@H]1O[C@H](COC(=O)c2ccc(-c3ccccc3)cc2)[C@H](O)[C@H](O)[C@H]1O[C@@H]1O[C@H](CO)[C@H](O)[C@H](O)[C@H]1O
3.12,3.12,3.12,> 100,1.56,100,50,50,50,3.12,CCCCC/C=C/C=C/[C@@H](O)C/C=C/C=C/C(=O)O[C@@H]1[C@@H](O)[C@H](c2c(O)cc(O)cc2CO)O[C@H](CO)[C@H]1O[C@@H]1O[C@H](COC(=O)c2ccc(Oc3ccccc3)cc2)[C@H](O)[C@H](O)[C@H]1O[C@@H]1O[C@H](CO)[C@H](O)[C@H](O)[C@H]1O
0.78,1.56,3.12,12.5,0.78,12.5,12.5,25,12.5,0.78,CCCCC/C=C/C=C/[C@@H](O)C/C=C/C=C/C(=O)O[C@@H]1[C@@H](O)[C@H](c2c(O)cc(O)cc2CO)O[C@H](CO)[C@H]1O[C@@H]1O[C@H](COC(=O)c2ccc(-c3ccc(-c4ccccc4)cc3)cc2)[C@H](O)[C@H](O)[C@H]1O[C@@H]1O[C@H](CO)[C@H](O)[C@H](O)[C@H]1O
0.78,1.56,0.78,12.5,0.78,6.25,12.5,25,12.5,0.78,CCCCC/C=C/C=C/[C@@H](O)C/C=C/C=C/C(=O)O[C@@H]1[C@@H](O)[C@H](c2c(O)cc(O)cc2CO)O[C@H](CO)[C@H]1O[C@@H]1O[C@H](COC(=O)c2ccc(-c3ccc(OC(C)C)cc3)cc2)[C@H](O)[C@H](O)[C@H]1O[C@@H]1O[C@H](CO)[C@H](O)[C@H](O)[C@H]1O
0.39,0.78,0.78,25,0.2,12.5,25,25,25,0.78,CCCCC/C=C/C=C/[C@@H](O)C/C=C/C=C/C(=O)O[C@@H]1[C@@H](O)[C@H](c2c(O)cc(O)cc2CO)O[C@H](CO)[C@H]1O[C@@H]1O[C@H](COC(=O)c2ccc(-c3ccc(CC)cc3)cc2)[C@H](O)[C@H](O)[C@H]1O[C@@H]1O[C@H](CO)[C@H](O)[C@H](O)[C@H]1O
1.56,1.56,3.12,25,0.78,12.5,50,25,50,3.12,CCCCC/C=C/C=C/[C@@H](O)C/C=C/C=C/C(=O)O[C@@H]1[C@@H](O)[C@H](c2c(O)cc(O)cc2CO)O[C@H](CO)[C@H]1O[C@@H]1O[C@H](COC(=O)c2ccc(-c3ccc(OCc4ccccc4)cc3)cc2)[C@H](O)[C@H](O)[C@H]1O[C@@H]1O[C@H](CO)[C@H](O)[C@H](O)[C@H]1O

# From ChEMBL document CHEMBL1150522, “Preparation and antifungal activity of fusacandin analogs: C-6 sidechain esters” (1996)
